In patent publication US20240358701A1, “PHARMACEUTICAL COMPOSITIONS AND COMBINATIONS COMPRISING INHIBITORS OF THE ANDROGEN RECEPTOR AND USES THEREOF” (ESSA Pharma Inc., priority 2021, published 2024):
Where two headings read alike, the source gives them in different places.

Columns and labels:
[1] = Phase 1 dose escalation (Example 3): PK evaluation / drug-drug interaction; format: in vivo, human; details: for exposure under drug-drug interaction with a concomitant medication (strong CYP3A inducer): discontinued at end of cycle 2; for AUC: human, plasma, oral, 600 mg QD, read-out: AUCss for Compound A
Procedure: Phase 1 of the study is a single-arm dose escalation study of Compound A in combination with a fixed dose of enzalutamide (120 mg/day). This portion of the study primarily evaluates the safety and tolerability of the drug combination and establishes the RP2CD for Compound A and enzalutamide when dosed in combination. In addition, blood sampling will be conducted for PK evaluation to assess the potential drug-drug interaction (DDI) between the two drugs.
In the Phase 1 part of the study each dose cohort will receive a 7-day run-in with single agent Compound A to establish steady-state concentrations of this drug at that dose level, followed by 28-day cycles of the combination Compound A with enzalutamide. Subjects may remain on study treatment as long as they are tolerating treatment without disease progression based on Response Evaluation Criteria in Solid Tumors (RECIST) v1.1 or based on Prostate Cancer Working Group 3 (PCWG3) criteria. A 30-day End of Treatment Visit will be conducted 30 days from the date of the last dose.
For Cohort 1, subjects (n=3) were orally administered 600 mg QD (once a day) of Compound A alone for 7 days then administered 600 mg QD Compound A in combination with 120 mg QD enzalutamide for at least one cycle (e.g., 28 days). Two subjects received the combination of Compound A and enzalutamide for at least 4 cycles (e.g., 16 weeks).
The plasma concentration data for Compound A, enzalutamide, N-desmethylated enzalutamide (M2; active metabolite) will be analyzed using non-compartmental methods to obtain estimates of standard PK parameters.
PK parameters of Compound A following multiple dosing including but not limited to plasma area under the concentration-time curve from time zero to 24 hours (AUC0-24), maximum concentration (Cmax), observed pre-dose plasma concentration during multiple dosing (Ctrough), time to reach Cmax (Tmax), apparent terminal elimination half-life (t½; whenever feasible to calculate), apparent volume of distribution at steady state after extravascular administration (Vss/F), apparent clearance after extravascular administration (CL/F).
PK parameters of enzalutamide and its primary active metabolite following multiple dosing including but not limited to AUC0-24, Cmax, Ctrough, Tmax, t½ (whenever feasible to calculate), Vss/F, CL/F.

[2] = enzalutamide monotherapy, cited from earlier work
[3] = Cohort 1: 600 mg QD Compound A + 120 mg QD enzalutamide

| enzalutamide exposure, impact of Compound A administration [1, 3] | SMILES | exposure under drug-drug interaction with a concomitant medication (strong CYP3A inducer) ([1]; Cohort 1, third subject) | Compound A exposure, impact of enzalutamide [1, 3] | AUC ([1]; Cohort 1, first subject, no prior chemotherapy (FIG. 1A)) [ng·h/mL] | AUC ([1]; Cohort 1, second subject, prior chemotherapy (FIG. 1B)) [ng·h/mL] | AUC ([1]; Cohort 1, third subject, prior chemotherapy, concomitant strong CYP3A inducer (FIG. 1C)) [ng·h/mL] | 90 day confirmed PSA<0.2 ng/mL rate ([2]; post-chemotherapy population) [%] | 90 day confirmed PSA<0.2 ng/mL rate ([2]; pre-chemotherapy population) [%] |
| --- | --- | --- | --- | --- | --- | --- | --- | --- |
| – | CC(C)(c1ccc(OCc2ccnc(NS(C)(=O)=O)n2)cc1)c1cc(Cl)c(OCCCl)c(C#N)c1 [Compound A, N-(4-((4-(2-(3-chloro-4-(2-chloroethoxy)-5-cyanophenyl)propan-2-yl)phenoxy)methyl)pyrimidin-2-yl)methanesulfonamide] | significant decrease in exposure | impacted by enzalutamide with higher metabolism of Compound A observed | ~235000 | ~62000 | ~33000 | – | – |
| only minimally impacted | CNC(=O)c1ccc(N2C(=S)N(c3ccc(C#N)c(C(F)(F)F)c3)C(=O)C2(C)C)cc1F [enzalutamide, reference compound] | significant decrease in exposure | – | – | – | – | 1 | 5 |
